13 compounds from ChEMBL document CHEMBL1201862, “PubChem BioAssay data set” (2004) can be followed below.

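Cultured in 96-well plates, cells were exposed to test compound for 48 hours across five concentrations. Here, GI50 denotes the concentration required for 50% inhibition of growth.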 The source made the active and inactive calls. Cut-off read from the data, not from the text of the source: active = GI50 up to about 1.1 µM and inactive = higher.

Test systems include SK-MEL-5; IGROV-1; NCI-H226; HCT-15; HCC 2998; SN12C; OVCAR-5; Malme-3M; UACC-62; COLO 205; NCI-H460; SR; U-251; SNB-19; UACC-257; DU-145; MCF7; PC-3; MDA-MB-231.
Common to all, as to assay: NCI-60 cell line screen, 48 h

Take `COC(=O)C1=Cc2cc(OC)c(OC)cc2[C@H](c2ccc(OC)c(OC)c2)C1C(=O)OC` (stereo partly specified): the GI50 with SK-MEL-5 was > 100 µM (inactive); in the test on IGROV-1, > 100 µM (inactive); in the test on NCI-H226, > 100 µM (inactive); in the test with HCT-15, 76 µM; with HCC 2998 it was > 100 µM (inactive); in the test with SN12C it was > 100 µM (inactive). For the same compound, the GI50 in the test on OVCAR-5 is > 100 µM (inactive); in the test with Malme-3M, > 100 µM (inactive); in the test on UACC-62 it was 98.9 µM (inactive); in the test on COLO 205, > 100 µM (inactive); with NCI-H460, > 100 µM (inactive); in the test with SR it was > 100 µM (inactive). The GI50 in the test on U-251, in the test with SNB-19 and in the test with UACC-257 was > 100 µM (inactive) each time.
As to `CCCOc1ccc(/C=C/c2cc(OC)c(OC)c(OC)c2)cc1`, the GI50 is 0.144 µM (active) in the test with SK-MEL-5; 0.399 µM (active) in the test on IGROV-1; 0.373 µM (active) with NCI-H226; 0.348 µM in the test with HCT-15; 3.02 µM (inactive) with HCC 2998; 0.635 µM (active) in the test on SN12C. For the same compound, the GI50 in the test with OVCAR-5 was 28 µM (inactive); in the test with Malme-3M it was 0.21 µM (active); in the test on UACC-62 it was 0.215 µM (active); in the test with COLO 205, 0.298 µM (active); with NCI-H460 it was 0.439 µM (active); in the test with SR, 0.548 µM (active). Moreover, the GI50 in the test with U-251 was 0.384 µM (active); in the test on SNB-19 it was 0.681 µM (active); in the test on UACC-257 it was 0.348 µM (active).
In the case of `CN(C)NC(=O)/C(=C/c1ccc(Cl)cc1)NC(=O)c1ccccc1`, the GI50 with SK-MEL-5 is > 100 µM (inactive); with IGROV-1, > 100 µM (inactive); in the test on NCI-H226 it was > 100 µM (inactive); in the test on HCT-15, 32 µM; in the test with HCC 2998, > 100 µM (inactive); in the test on SN12C, > 100 µM (inactive). Besides, the GI50 is > 100 µM (inactive) in the test with OVCAR-5; > 100 µM (inactive) with Malme-3M; > 100 µM (inactive) with UACC-62; 45.2 µM (inactive) in the test on COLO 205; 69.3 µM (inactive) with NCI-H460; 39.9 µM (inactive) with SR. Besides, the GI50 in the test with U-251, with SNB-19 and in the test with UACC-257 was > 100 µM (inactive) throughout.
As to `NCCCC(N/C=C1/N=C(c2ccccc2)OC1=O)C(=O)O` (stereo unspecified), the GI50 in the test with SK-MEL-5 was > 100 µM (inactive); with IGROV-1 it was > 100 µM (inactive); in the test on NCI-H226 it was > 100 µM (inactive); in the test with HCT-15, above 100 µM; in the test on HCC 2998 it was > 100 µM (inactive); in the test on SN12C, > 100 µM (inactive). The GI50 with OVCAR-5 was > 100 µM (inactive); in the test on Malme-3M, > 100 µM (inactive); in the test on UACC-62, > 100 µM (inactive); in the test with COLO 205, > 100 µM (inactive); in the test with NCI-H460, > 100 µM (inactive); with SR it was 87.3 µM (inactive). The GI50 in the test with U-251, in the test on SNB-19 and with UACC-257 was > 100 µM (inactive) each time.
In the case of `COc1ccc(P2(=S)OC(C)(C)C(C)(C)O2)cc1`, the GI50 is > 100 µM (inactive) in the test with SK-MEL-5; > 100 µM (inactive) in the test on IGROV-1; > 100 µM (inactive) with NCI-H226; above 100 µM with HCT-15; > 100 µM (inactive) in the test on SN12C; > 100 µM (inactive) with DU-145. The GI50 with OVCAR-5, in the test on Malme-3M, in the test with UACC-62, with MCF7, with PC-3 and in the test on NCI-H460 was > 100 µM (inactive) each time. Further, the GI50 in the test with SR, in the test on U-251, with SNB-19, in the test with MDA-MB-231 and with UACC-257 was > 100 µM (inactive) throughout.
As to `CS/C(=N\C#N)S/C=C/C(=O)c1ccc(Cl)cc1`, the GI50 in the test with SK-MEL-5 was 15.9 µM (inactive); in the test with IGROV-1, 18.3 µM (inactive); with HCT-15, 30.2 µM; in the test with HCC 2998, 42.4 µM (inactive); with SN12C, 26.2 µM (inactive); with DU-145, 25.6 µM (inactive). Further, the GI50 in the test with OVCAR-5 was 39.4 µM (inactive); with Malme-3M, 26.4 µM (inactive); in the test with UACC-62, 22.9 µM (inactive); in the test with MCF7, 26.4 µM (inactive); with COLO 205 it was 25.4 µM (inactive); with PC-3 it was 46.6 µM (inactive). The GI50 was > 100 µM (inactive) with NCI-H460; 3.13 µM (inactive) with SR; 31.9 µM (inactive) in the test with U-251; 42 µM (inactive) in the test with SNB-19; 20.9 µM (inactive) in the test with UACC-257.
Regarding `Cc1cccc(N2C(=O)/C(=C/c3ccc(N(CCC#N)CCC#N)cc3C)N=C2c2cc([N+](=O)[O-])ccc2Cl)c1`, the GI50 in the test on SK-MEL-5 was > 100 µM (inactive); in the test on IGROV-1 it was > 100 µM (inactive); with NCI-H226, > 100 µM (inactive); in the test on HCT-15, above 100 µM; with HCC 2998, > 100 µM (inactive); with SN12C, > 100 µM (inactive). In addition, the GI50 was > 100 µM (inactive) in the test with OVCAR-5; > 100 µM (inactive) with Malme-3M; > 100 µM (inactive) in the test on UACC-62; 47.3 µM (inactive) with COLO 205; > 100 µM (inactive) with NCI-H460; > 100 µM (inactive) with SR. Further, the GI50 in the test on U-251, in the test with SNB-19 and with UACC-257 was > 100 µM (inactive) each time.
Regarding `CCCNC(=S)N/N=C/c1cccc(C)n1`, the GI50 with SK-MEL-5 was 31.7 µM (inactive); in the test on IGROV-1 it was 42.7 µM (inactive); in the test with NCI-H226, 19.8 µM (inactive); with HCT-15 it was 18.5 µM; in the test with HCC 2998, 19.5 µM (inactive); with SN12C, 29.2 µM (inactive). Further, the GI50 with OVCAR-5 was 44.5 µM (inactive); with Malme-3M it was 12.7 µM (inactive); in the test on UACC-62, 20.8 µM (inactive); in the test on MCF7, 41.2 µM (inactive); in the test with COLO 205, 3.94 µM (inactive); in the test on PC-3 it was 38.6 µM (inactive). Besides, the GI50 is 15 µM (inactive) in the test on SR, 21.9 µM (inactive) in the test with U-251, 33.7 µM (inactive) with MDA-MB-231 and 33 µM (inactive) in the test on UACC-257.
`Fc1ccccc1CN1COc2c(cc(Cl)c3cccnc23)C1`: the GI50 was 0.713 µM (active) in the test on SK-MEL-5; 4.55 µM (inactive) in the test on IGROV-1; 0.624 µM (active) in the test with NCI-H226; 0.0165 µM in the test on HCT-15; 0.215 µM (active) with SN12C; 2.62 µM (inactive) with DU-145. In addition, the GI50 was 3.05 µM (inactive) with OVCAR-5; 2.28 µM (inactive) in the test on Malme-3M; 0.427 µM (active) in the test on UACC-62; 3.33 µM (inactive) with MCF7; 14.2 µM (inactive) with COLO 205; 1.44 µM (inactive) in the test on PC-3. Moreover, the GI50 was 0.533 µM (active) in the test on NCI-H460; 0.389 µM (active) with SR; 1.56 µM (inactive) in the test on U-251; 2.24 µM (inactive) in the test with SNB-19; 0.422 µM (active) in the test on MDA-MB-231; 2.51 µM (inactive) in the test with UACC-257.
For the compound `COC(=O)c1cc2c3c(ccc2[nH]1)N(C(=O)c1cc2c4c(ccc2[nH]1)N(C(=O)c1cc2c5c(ccc2[nH]1)N(C(N)=O)CC5)CC4)CC3`, the GI50 was 2.07 µM (inactive) in the test with SK-MEL-5; 3.37 µM (inactive) in the test on IGROV-1; 1.71 µM (inactive) in the test with NCI-H226; 12 µM in the test on HCT-15; 5.45 µM (inactive) in the test on HCC 2998; 2.97 µM (inactive) with SN12C. Besides, the GI50 is > 52.7 µM (inactive) in the test on OVCAR-5; 1.24 µM (inactive) with Malme-3M; 0.845 µM (active) in the test with UACC-62; 2.72 µM (inactive) with COLO 205; 3.24 µM (inactive) in the test on NCI-H460; 5.58 µM (inactive) with SR. The GI50 with U-251 was 2.17 µM (inactive); in the test on SNB-19, 2.61 µM (inactive); in the test on UACC-257 it was > 22.6 µM (inactive).
For `C=CC1(c2ccc3ccccc3c2)OCC(CC)(CC)CO1`, the GI50 with SK-MEL-5 is 18.5 µM (inactive); in the test with IGROV-1, 21.9 µM (inactive); in the test with NCI-H226, 16.4 µM (inactive); in the test on HCT-15 it was 17.9 µM; in the test with HCC 2998, 20.9 µM (inactive); with SN12C, 21.7 µM (inactive). The GI50 in the test with DU-145 was 45.1 µM (inactive); with OVCAR-5, 18.8 µM (inactive); in the test on Malme-3M, 28.2 µM (inactive); with UACC-62, 24.8 µM (inactive); in the test on MCF7 it was 37.6 µM (inactive); in the test with COLO 205 it was 16.3 µM (inactive). In addition, the GI50 with PC-3 is 26.9 µM (inactive); in the test on NCI-H460, 22.1 µM (inactive); with U-251, 21.5 µM (inactive); in the test with SNB-19, 17.3 µM (inactive); in the test with MDA-MB-231, 15.8 µM (inactive); in the test with UACC-257, 27.2 µM (inactive).
With `CC1C(c2cc(C(C)(C)C)c(O)c(C(C)(C)C)c2)c2cc3c(cc2OC1N1CCOCC1)OCO3` (stereo unspecified), the GI50 was 17.1 µM (inactive) in the test on SK-MEL-5; 36.2 µM (inactive) with IGROV-1; above 10 µM in the test with HCT-15; 12.9 µM (inactive) with HCC 2998; 33.8 µM (inactive) in the test on SN12C; 30.1 µM (inactive) with DU-145. Moreover, the GI50 in the test on OVCAR-5 is > 100 µM (inactive); in the test on UACC-62 it was 26.4 µM (inactive); with MCF7 it was 21.2 µM (inactive); in the test with COLO 205 it was 71 µM (inactive); in the test on PC-3, 14.2 µM (inactive); in the test on NCI-H460, 21.6 µM (inactive). Moreover, the GI50 is 64.7 µM (inactive) with SR, 15.7 µM (inactive) with SNB-19 and 34.6 µM (inactive) with UACC-257.
Take `CN1CC[C@]2(C)c3cc(O)ccc3CC3CCCC1C32C` (stereo partly specified): the GI50 with SK-MEL-5 is > 100 µM (inactive); with IGROV-1 it was > 100 µM (inactive); in the test on NCI-H226 it was > 100 µM (inactive); in the test with HCT-15, above 100 µM; in the test with HCC 2998 it was 47.2 µM (inactive); in the test on SN12C it was > 100 µM (inactive). Also, the GI50 in the test with OVCAR-5, in the test on Malme-3M, with UACC-62, in the test on COLO 205, in the test on NCI-H460 and in the test on SR was > 100 µM (inactive) throughout. Moreover, the GI50 in the test with U-251, in the test with SNB-19 and with UACC-257 was > 100 µM (inactive) throughout.
